Data as given in ChEMBL document CHEMBL1154387, “Discovery of novel non-peptide inhibitors of BACE-1 using virtual high-throughput screening” (Bioorg Med Chem Lett, 2009).
pIC50: −log10 of the molar value.

Assays:
Beta-secretase 1 [1] = biological target: T1, Beta-secretase 1 (Homo sapiens, UniProt P56817); test: Inhibition of human recombinant BACE1; design: concentration or dose not given beside the values; conditions: concentration not given here
Beta-secretase 1 [2] = biological target: T1, Beta-secretase 1; test: Inhibition of human recombinant BACE1 at 100 uM

T1 sequence (P56817 whole entry): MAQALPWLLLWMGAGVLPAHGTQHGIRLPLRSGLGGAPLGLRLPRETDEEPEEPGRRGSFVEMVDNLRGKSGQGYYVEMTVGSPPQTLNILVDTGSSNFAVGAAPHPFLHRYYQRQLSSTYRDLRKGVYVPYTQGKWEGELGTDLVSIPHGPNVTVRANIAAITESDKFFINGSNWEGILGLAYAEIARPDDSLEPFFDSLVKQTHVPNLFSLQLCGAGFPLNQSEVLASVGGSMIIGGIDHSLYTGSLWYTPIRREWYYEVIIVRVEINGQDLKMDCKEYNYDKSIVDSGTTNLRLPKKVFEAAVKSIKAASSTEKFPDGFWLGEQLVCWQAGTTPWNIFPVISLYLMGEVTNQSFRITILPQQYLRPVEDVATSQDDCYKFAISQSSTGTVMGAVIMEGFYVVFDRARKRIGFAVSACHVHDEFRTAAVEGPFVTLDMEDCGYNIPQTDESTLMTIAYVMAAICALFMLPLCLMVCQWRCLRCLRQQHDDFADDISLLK

Row | SMILES | inhibition (Beta-secretase 1 [1]) [%] | pIC50 (Beta-secretase 1 [2])
1 | Cc1ccc(NC(=O)CN2C(=O)/C(=N\NC(=O)c3ccccc3O)c3ccccc32)cc1 | 71.1 | 
2 | O=C(CN1C(=O)/C(=N\NC(=O)c2cc([N+](=O)[O-])ccc2O)c2ccccc21)Nc1ccc(C(F)(F)F)cc1 | 74.6 | 
3 | COc1ccc([N+](=O)[O-])cc1C(=O)N/N=C1\C(=O)N(CC(=O)Nc2ccc(C)cc2)c2ccccc21 | 20.2 | 
4 | O=C1Nc2ccccc2/C1=N/NC(=O)c1cc([N+](=O)[O-])ccc1O | 35.2 | 
5 | Cc1ccc(NC(=O)CN2C(=O)/C(=N\NC(=O)c3cc([N+](=O)[O-])ccc3O)c3ccccc32)cc1 | 84.5 | 5.62
6 | O=C(CN1C(=O)/C(=N\NC(=O)c2cc([N+](=O)[O-])ccc2O)c2ccccc21)NC1CCCCC1 | 92 | 5.32
7 | Cc1ccc(NC(=O)CN2C(=O)/C(=N\NC(=O)c3cccc([N+](=O)[O-])c3)c3ccccc32)cc1 | 28.8 | 
8 | CN1C(=O)/C(=N\NC(=O)c2cc([N+](=O)[O-])ccc2O)c2ccccc21 | 14.3 | 
